Like-named read-outs stand apart in the source and are kept apart here.
Columns and labels:
[1] = tested on: S. cerevisiae yeast cells; test: Yeast growth in suspension with ATP and drug selection (turbidity); format: cell-based, Saccharomyces cerevisiae; conditions: 100 mM ATP, 48 hours
Protocol: Cell lines: Cell lines were the same as those described above in Example 2 and 3. YMR4 MDR1 is the phosphatase mutant yeast strain overexpressing AtPGP-1; YMR4 pVT101 contains vector alone; INVSC MDR1 is the wild-type yeast strain overexpressing AtPGP-1; and INVSC pVT101 contains vector alone.
Selection in drug: To create drug resistant yeast strains, all four cell lines were grown up in the presence of 500 ng/ml of cycloheximide, and transferred to other cycloheximide containing plates after a period of four to six days. This transfer of cell lines and subculturing continued such that the yeast cells grew in the presence of cycloheximide for a period of at least a month.
Cells cultured in media alone: To create cell lines that had not been preselected for their ability to grow in drug, yeast strains were grown on plates containing YNB (Bio101, Vista, Calif.) without uracil (-URA) to maintain the presence of the vector (which supplies URA) without any drugs added.
Growth of cells in suspension for ATP and drug selection experiments: Cells were transferred into 5 ml YNB-URA liquid media for turbidity measurements. All cell lines (both non-drug selected and drug-selected) were grown in media with the addition of either nothing, 500 ng/ml cycloheximide, 100 mM ATP, or 500 ng/ml cycloheximide and 100 mM ATP. Turbidity readings were taken after 48 hours.

[2] = tested on: Arabidopsis thaliana plants; test: Arabidopsis germination selection assay of transgenic plants (Example 2); format: in vivo; conditions: cycloheximide 250 ng/ml
Source text: Expression of apyrase and AtPGP-1 in plants: The expression of apyrase in plants is as described above in Example 1. Similar methods were employed to express AtPGP-1 in Arabidopsis thaliana plants with the following modifications. The AtPGP-1 coding region was subcloned into a pBIN vector lacking the GUS gene as described in Sidler, et al., 1998, The Plant Cell 10:1623-1636. This plasmid was then transformed into A. tumefaciens as described above, which was used to infect root calli to produce transgenic plants expressing AtPGP-1.
Plant growth: Arabidopsis thaliana seeds were sown in a solid germination media containing MS salt, 2% sucrose, 0.8% agar, and vitamins (Valvekens, D. et al., […], Proc. Natl. Acad. Sci. USA 85:5536-5540. For selection assays, cycloheximide was spread on the media to achieve a final concentration of 250 ng/ml. Plant growth was measured by germination percentage after 6-30 days.

[3] = tested on: Arabidopsis thaliana plants; format: in vivo; conditions: after 10-20 days
Protocol: Plant Growth: Arabidopsis seeds were sown in a solid germination media containing MS salts (Sigma Chemical, St. Louis, Mo.), 2% sucrose, 0.8% agar, and vitamins (Valvekens, D. et al., 1992, Proc. Natl. Acad. Sci. USA 85:5536-5540). For selection assays, one of the following, or a combination of both, Was added to media (cooled to less than 50° C. before adding) immediately prior to pouring into plates: cycloheximide at a final concentration of 500 ng/ml; α,β-methyleneadenosine 5′-diphosphate at a final concentration of 1 mM. Plant growth was measured by germination percentage after 10-20 days.
All other materials and methods were discussed above in Example 2.

yeast mutant YMR4 = test: Yeast growth in suspension, salvage pathway experiments (adenosine, phosphate); format: cell-based, Saccharomyces cerevisiae; conditions: 72 hours; for effect of addition to the media on resistance to cycloheximide: YMR4 cells, 3 mM adenosine, potassium phosphate; for effect of addition on growth in drug: cells overexpressing AtPGP-1 grown in cycloheximide
Protocol: Growth of cell lines in suspension for salvage pathway experiments: All cell lines were grown in liquid media either containing drug (for the drug selected lines) or not containing drug (for the non-drug selected lines). When the cultures reached a turbidity of 1.00 as measured at a wavelength of 600 in a spectrophotometer (OD600=1.00), 10 μl of each culture was then removed and placed in either media with nothing added, 3 mM potassium phosphate; 3 mM adenosine; 9 mM potassium phosphate and 3 mM adenosine (for controls); potassium phosphate and cycloheximide; adenosine and cycloheximide; adenosine, cycloheximide, and potassium phosphate. Cell cultures were further grown for 72 hours, and their turbidity was determined by OD600 readings on a spectrophotometer.

[4] = tested on: Saccharomyces cerevisiae INVSC1 and YMR4; test: Yeast growth selection assay on plates and in liquid media (turbidity OD600); format: cell-based; conditions: cycloheximide 500 ng/ml
Source text: Expression of AtPGP-1 in yeast: The AtPGP-1 cDNA (Arabidopsis thaliana MDR gene, accession #X61370) was subcloned into pVT101 downstream of the ADH promoter to create the AtPGP-1/pVT101 construct. AtPGP-1/pVT101 and pVT101 were transformed into Saccharomyces cerevisiae INVSC1 (genotype: MATα, his3-Δ1, leu2, trp1-289, ura3-52) and YMR4 (genotype: MATαhis3-11,15, leu2-3, 112ura3Δ5, can Res pho5, 3::ura3Δ1) by a PEG lithium acetate procedure (Eble, R., 1992, Biotechniques 13:18-20) and selected on uracil dropout medium.
Yeast Growth: Yeast were grown at 30° C. under conditions of constant selection for uracil auxotrophy. YNB (Bio101, Vista, Calif.) supplemented with CSM (uracil dropout) and 2% glucose was used to grow strains having pVT101 constructs. Cycloheximide (Sigma Chemical, St. Louis, Mo.) was added to liquid media or spread on solid media to achieve a final concentration of 500 ng/ml. Nigericin (Sigma Chemical, St. Louis, Mo.) was added to liquid media or spread on solid media to achieve a final concentration of 25 μg/ml. Yeast strains used in cycloheximide selection assays were always propagated in the presence of the cycloheximide on plates and then streaked onto new plates containing drug or no drug, such that induced resistance existed in each strain at the time of the start of the assay. For selection assays on plates, single colonies were streaked; for selection in liquid media 0.01 ml of saturated culture was added to fresh media containing the drug. The plates shown in figures were grown for 3-5 days before photographs were taken. Yeast selection assays in liquid media were quantitated by turbidity as measured by absorbance at OD600.

[5] = YMR4 ecto-phosphatase deficient mutant (vector alone), nigericin 25 μg/ml
[6] = YMR4 expressing AtPGP-1, nigericin 25 μg/ml

Nc1ncnc2c1ncn2[C@@H]1O[C@H](COP(=O)(O)OP(=O)(O)OP(=O)(O)O)[C@@H](O)[C@H]1O [ATP]
growth in high levels of ATP ([1]; cells not previously selected in drug): able to grow | growth in high levels of ATP ([1]; cells previously selected in cycloheximide, not overexpressing AtPGP-1): not able to grow

CC(C)=CCNc1ncnc2nc[nH]c12 [N6-(2-isopentenyl) adenine]
resistance of plants to the drug (germination) ([2]; plants over-expressing AtPGP-1): confer resistance | resistance of plants to the drug (germination) ([2]; plants over-expressing apyrase): The same result was obtained

Nc1ncnc2c1ncn2[C@@H]1O[C@H](COP(=O)(O)CP(=O)(O)O)[C@@H](O)[C@H]1O [phosphatase inhibitor, α,β-methyleneadenosine 5′-diphosphate]
germination rate ([3]; AtPGP-1 overexpressing (MDR OE) plants, cycloheximide 500 ng/ml, phosphatase inhibitor 1 mM): 83% | germination rate ([3]; wild-type plants, cycloheximide 500 ng/ml, phosphatase inhibitor 1 mM): 90%

O=P(O)(O)O [phosphate, potassium phosphate]
effect of addition to the media on resistance to cycloheximide (yeast mutant YMR4): did not enhance resistance | effect of addition on growth in drug (yeast mutant YMR4): slightly inhibitory

Nc1ncnc2c1ncn2[C@@H]1O[C@H](CO)[C@@H](O)[C@H]1O [adenosine]
effect of addition to the media on resistance to cycloheximide (yeast mutant YMR4): did not enhance resistance | effect of addition on growth in drug (yeast mutant YMR4): slightly inhibitory

C[C@@H]1C[C@@H]([C@H](O)CC2CC(=O)NC(=O)C2)C(=O)[C@@H](C)C1 [cycloheximide]
germination rate ([3]; AtPGP-1 overexpressing (MDR OE) plants): 50% | germination rate ([3]; wild-type plants): 2% | effect of AtPGP-1 on growth in the presence of drug ([4]; INVSC1 wild-type yeast with AtPGP-1): did not have any effect | growth in the presence of drug ([4]; INVSC1 wild-type yeast): did grow | growth in the presence of drug [4, 5]: did not grow | growth in the presence of drug [4, 6]: enabled the yeast mutant to grow | resistance of plants to the drug (germination) ([2]; plants over-expressing AtPGP-1): confer resistance | resistance of plants to the drug (germination) ([2]; plants over-expressing apyrase): conference of resistance

CO[C@@H]1C[C@@H](C[C@H]2CC[C@H](C)[C@H]([C@@H](C)C(=O)O)O2)O[C@]2(O[C@](C)([C@H]3CC[C@@](C)([C@@H]4O[C@@H]([C@H]5O[C@@](O)(CO)[C@H](C)C[C@@H]5C)C[C@@H]4C)O3)C[C@H]2C)[C@@H]1C [nigericin]
growth in the presence of drug [4, 5]: reduced growth | growth in the presence of drug [4, 6]: The same result was obtained
